From ChEMBL document CHEMBL1201862, “PubChem BioAssay data set” (2004) come the findings set out here.

SMILES strings stand for the structures. Calls of active or inactive are those of the source.

For assay [1], the system named is Escherichia coli. Briefly: microbe, parasite or virus in culture.
For assay [2], the target named is T1, RNA-binding protein pos-1 (Caenorhabditis elegans, UniProt G5EF15).
T1 sequence (G5EF15 whole entry): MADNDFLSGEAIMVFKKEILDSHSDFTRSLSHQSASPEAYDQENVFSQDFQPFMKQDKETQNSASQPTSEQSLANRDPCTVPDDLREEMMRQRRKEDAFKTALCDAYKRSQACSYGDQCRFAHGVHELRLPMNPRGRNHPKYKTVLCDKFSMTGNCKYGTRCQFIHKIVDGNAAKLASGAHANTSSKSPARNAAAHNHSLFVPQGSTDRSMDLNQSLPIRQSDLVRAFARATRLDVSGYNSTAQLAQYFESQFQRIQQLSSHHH
Briefly: disruptors of C. elegans POS-1 RNA interaction – biochemical, fluorescence polarization, dose response (AID 1964).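 Also: purified POS-1 fused to maltose binding protein made in E. coli; potency of compounds blocking POS-1 binding to fluorescent RNA.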

The subject of assay [3] is HeLa. Briefly: viability loss in HeLa cells – cell-based, 24 h, cherry-picked samples, cytotoxicity control, dose response (AID 504726).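 Also: potency for cytotoxicity as loss of luminescence signal.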 As to conditions: Homo sapiens. In kind it is functional.
For assay [4], the target named is T2, Zinc finger protein mex-5 (Caenorhabditis elegans, UniProt Q9XUB2).
T2 sequence (Q9XUB2 whole entry): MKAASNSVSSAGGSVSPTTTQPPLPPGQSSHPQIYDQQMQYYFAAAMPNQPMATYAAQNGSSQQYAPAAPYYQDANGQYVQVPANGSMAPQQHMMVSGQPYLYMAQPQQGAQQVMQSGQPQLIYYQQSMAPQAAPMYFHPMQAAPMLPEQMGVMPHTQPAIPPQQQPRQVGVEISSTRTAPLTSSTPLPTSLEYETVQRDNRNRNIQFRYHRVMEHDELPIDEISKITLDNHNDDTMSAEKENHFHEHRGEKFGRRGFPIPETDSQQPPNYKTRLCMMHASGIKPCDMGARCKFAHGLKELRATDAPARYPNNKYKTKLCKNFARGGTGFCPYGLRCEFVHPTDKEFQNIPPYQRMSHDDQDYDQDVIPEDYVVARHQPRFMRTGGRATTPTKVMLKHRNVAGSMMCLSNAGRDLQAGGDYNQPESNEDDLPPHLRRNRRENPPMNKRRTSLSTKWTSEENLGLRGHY
In words: potency of MEX-5 RNA-binding blockers – biochemical, C. elegans, fluorescence polarization, dose response (AID 1960).

The subject of assay [5] is Escherichia coli. Briefly: microbe, parasite or virus in culture. This is another data set of the same source.
In assay [6] the test system is INS1. Briefly: INS-1E mitochondrial potential loss inhibitors – cell-based, JC-1 fluorescence, dry powder, set 2, dose response (AID 488867). It is filed as functional. As to conditions: Rattus norvegicus.
In assay [7] the test system is INS1. Briefly: beta-cell survival under cytokine stress – INS-1E, ATP luminescence, dry powder, dose response (AID 488844). As to conditions: Rattus norvegicus. It is filed as functional, cell-based.
Assay [8] relates to INS1. In words: INS-1E mitochondrial potential rescue under cytokines – cell-based, JC-1 fluorescence ratio, dry powder, dose response (AID 488931). In kind it is functional. As to conditions: Rattus norvegicus.
Assay [9] concerns the target Phospholipase D1 (Homo sapiens, UniProt Q13393). Briefly: cellular phospholipase D1 inhibition IC50 – cell-based, dose response (AID 602151).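 Also: cellular PLD1 assay in Calu-1 cells stimulated with PMA.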 In kind it is functional.
Assay [10] concerns the target Phospholipase D2 (Homo sapiens, UniProt O14939). Briefly: cellular phospholipase D2 inhibition IC50 – cell-based, dose response (AID 602147).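 Also: cellular assay in HEK293 cells overexpressing GFP-tagged PLD2.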 It is filed as functional.
The target of assay [11] is Voltage-gated inwardly rectifying potassium channel KCNH2 (Homo sapiens, UniProt Q12809). As to conditions: Potency.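 Also: confirmatory quantitative high-throughput screen measuring inhibition of hERG channel activity.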
Sequence of Voltage-gated inwardly rectifying potassium channel KCNH2 (Q12809 whole entry): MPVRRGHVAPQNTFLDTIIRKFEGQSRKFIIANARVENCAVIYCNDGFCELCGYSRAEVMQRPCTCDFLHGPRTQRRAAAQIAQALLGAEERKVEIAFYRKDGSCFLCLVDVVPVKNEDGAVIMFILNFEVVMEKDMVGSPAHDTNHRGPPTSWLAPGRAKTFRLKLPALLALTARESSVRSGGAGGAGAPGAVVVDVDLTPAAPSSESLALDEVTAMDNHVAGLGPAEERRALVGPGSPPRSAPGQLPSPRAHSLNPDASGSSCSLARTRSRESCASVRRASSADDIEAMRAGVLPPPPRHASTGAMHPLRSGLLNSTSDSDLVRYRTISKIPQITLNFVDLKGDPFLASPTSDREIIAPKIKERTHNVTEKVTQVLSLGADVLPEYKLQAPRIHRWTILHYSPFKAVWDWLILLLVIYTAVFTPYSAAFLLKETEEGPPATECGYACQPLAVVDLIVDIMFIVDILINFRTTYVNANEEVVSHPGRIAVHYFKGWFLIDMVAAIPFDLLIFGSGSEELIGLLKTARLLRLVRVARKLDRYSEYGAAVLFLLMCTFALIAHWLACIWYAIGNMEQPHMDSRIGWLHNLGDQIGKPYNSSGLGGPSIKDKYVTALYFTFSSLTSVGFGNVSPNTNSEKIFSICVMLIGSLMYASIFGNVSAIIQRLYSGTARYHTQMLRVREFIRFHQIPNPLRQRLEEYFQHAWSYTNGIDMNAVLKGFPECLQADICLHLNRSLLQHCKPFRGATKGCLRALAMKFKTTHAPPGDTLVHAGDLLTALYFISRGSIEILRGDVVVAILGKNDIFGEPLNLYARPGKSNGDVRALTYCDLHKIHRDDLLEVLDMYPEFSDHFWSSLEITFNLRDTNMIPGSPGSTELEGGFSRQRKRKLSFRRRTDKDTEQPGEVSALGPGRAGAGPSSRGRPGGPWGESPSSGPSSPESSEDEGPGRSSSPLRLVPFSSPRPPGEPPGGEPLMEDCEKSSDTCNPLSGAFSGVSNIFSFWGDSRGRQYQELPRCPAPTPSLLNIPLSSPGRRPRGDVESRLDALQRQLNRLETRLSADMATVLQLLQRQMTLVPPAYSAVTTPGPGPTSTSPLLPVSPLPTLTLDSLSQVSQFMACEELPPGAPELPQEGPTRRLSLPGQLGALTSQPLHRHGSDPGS
Assay [12] can be described thus: viability of uninfected HEp-2 cells – cell-based, HTS, cytotoxicity control for RSV inhibitor project, dose response (AID 2410). In kind it is functional. As to conditions: human respiratory syncytial virus.

Sequence of Phospholipase D2 (O14939 whole entry): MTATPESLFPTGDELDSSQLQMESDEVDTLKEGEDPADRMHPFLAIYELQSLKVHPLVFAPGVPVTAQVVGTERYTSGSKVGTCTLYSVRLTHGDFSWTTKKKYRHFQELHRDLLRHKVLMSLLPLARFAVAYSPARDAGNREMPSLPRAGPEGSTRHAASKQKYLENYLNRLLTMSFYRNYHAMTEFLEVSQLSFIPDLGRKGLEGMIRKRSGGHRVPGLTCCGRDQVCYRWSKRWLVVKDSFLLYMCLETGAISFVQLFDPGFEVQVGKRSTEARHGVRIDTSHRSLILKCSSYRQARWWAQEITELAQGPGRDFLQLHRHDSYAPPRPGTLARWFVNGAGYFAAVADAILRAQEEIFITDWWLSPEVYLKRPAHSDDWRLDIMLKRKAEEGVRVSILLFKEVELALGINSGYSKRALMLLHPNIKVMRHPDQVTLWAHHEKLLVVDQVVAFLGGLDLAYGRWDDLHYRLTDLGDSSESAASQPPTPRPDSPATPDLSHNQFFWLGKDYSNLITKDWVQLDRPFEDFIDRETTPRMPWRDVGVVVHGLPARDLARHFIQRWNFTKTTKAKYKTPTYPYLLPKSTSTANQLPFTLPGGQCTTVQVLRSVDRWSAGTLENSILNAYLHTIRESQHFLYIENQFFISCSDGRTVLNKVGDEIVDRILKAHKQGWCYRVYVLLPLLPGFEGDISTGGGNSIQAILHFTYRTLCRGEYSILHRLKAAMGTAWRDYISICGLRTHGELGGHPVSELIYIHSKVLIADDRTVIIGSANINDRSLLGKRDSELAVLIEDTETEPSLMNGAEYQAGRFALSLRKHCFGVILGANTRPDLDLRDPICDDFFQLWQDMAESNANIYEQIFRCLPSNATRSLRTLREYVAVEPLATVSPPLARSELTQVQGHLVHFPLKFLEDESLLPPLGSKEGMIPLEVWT
Sequence of Phospholipase D1 (Q13393 whole entry): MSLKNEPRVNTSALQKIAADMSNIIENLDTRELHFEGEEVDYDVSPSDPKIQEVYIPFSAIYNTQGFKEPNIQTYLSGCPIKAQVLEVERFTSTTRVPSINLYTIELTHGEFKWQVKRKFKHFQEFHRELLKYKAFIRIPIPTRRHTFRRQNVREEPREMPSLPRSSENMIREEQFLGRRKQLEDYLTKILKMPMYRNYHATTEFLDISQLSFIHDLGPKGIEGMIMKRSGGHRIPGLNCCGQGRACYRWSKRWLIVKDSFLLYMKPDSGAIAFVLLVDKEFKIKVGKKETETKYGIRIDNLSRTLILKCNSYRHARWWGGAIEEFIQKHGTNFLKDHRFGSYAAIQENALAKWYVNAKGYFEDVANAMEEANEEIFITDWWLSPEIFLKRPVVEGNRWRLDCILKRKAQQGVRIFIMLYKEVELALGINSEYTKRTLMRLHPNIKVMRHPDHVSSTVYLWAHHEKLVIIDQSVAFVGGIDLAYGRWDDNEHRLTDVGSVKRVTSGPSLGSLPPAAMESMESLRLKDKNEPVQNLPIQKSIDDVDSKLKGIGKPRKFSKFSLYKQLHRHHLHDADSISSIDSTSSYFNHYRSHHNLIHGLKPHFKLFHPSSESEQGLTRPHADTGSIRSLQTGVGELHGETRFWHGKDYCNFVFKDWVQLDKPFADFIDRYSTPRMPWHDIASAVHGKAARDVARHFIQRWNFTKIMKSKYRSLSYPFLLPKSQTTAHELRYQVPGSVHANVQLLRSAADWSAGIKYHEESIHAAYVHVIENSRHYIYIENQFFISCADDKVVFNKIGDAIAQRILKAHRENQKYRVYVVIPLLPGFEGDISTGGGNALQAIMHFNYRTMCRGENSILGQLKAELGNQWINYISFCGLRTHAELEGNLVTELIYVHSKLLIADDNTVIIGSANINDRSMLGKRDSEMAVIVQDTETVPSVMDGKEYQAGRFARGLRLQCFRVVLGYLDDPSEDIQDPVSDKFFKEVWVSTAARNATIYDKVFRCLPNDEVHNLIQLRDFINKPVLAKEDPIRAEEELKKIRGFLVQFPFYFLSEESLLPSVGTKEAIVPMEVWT

Regarding `CN(C)C1C(=O)C(C(N)=O)=C(O)C2(O)C(O)=C3C(=O)c4c(O)cccc4C(C)(O)C3C(O)C12` (configuration not stated), the AC50 (commonly the concentration at which the activity in the assay is half-maximal) in assay [1] is 14.9 µM (active); in [3], 54.2 µM (active); in assay [5], < 0.3 µM (active). In addition, the results for the EC50 in [2] and in assay [4] were 65.8 µM (active) and 29.9 µM (inconclusive), respectively.
As to `COc1ccc(S(=O)(=O)N(C)C[C@@H]2Oc3c(NC(=O)Nc4ccccc4)cccc3C(=O)N([C@@H](C)CO)C[C@H]2C)cc1`, the AC50 is 58.9 µM (active) in assay [6], > 260 µM (inactive) in assay [7] and 34.8 µM (active) in assay [8].
`O=C(NCCN1CCC2(CC1)C(=O)NCN2c1ccccc1)c1ncc(F)cc1F`: the IC50 (as a rule, the concentration needed to halve the response being measured) was 20 µM (active) in assay [9] and 5.4 µM (active) in assay [10].
With `CCCCOc1cc(CC2CNC(=O)N2)ccc1OC` (configuration not stated) [RO-201724], the AC50 in [11] was 3.55 µM (inconclusive). In addition, the CC50 (usually the concentration that lowers cell viability or growth by half) in assay [12] was 23.8 µM (active).
